Tested on: E. coli
Experiment: Efficacy of treated coupons after inoculation with E. coli (Examples II-V)
Assay type: cell-based
Conditions: Examples IV/V: organosilane with triethanolamine coating first, Titanium Oxide Moieties (TiO2) disposed over it
Method: This Example II disposes the components of the composition onto a target surface in a reverse order. More specifically, Applicants first dispose the Titanium-Oxide Moieties onto the target surface, the aqueous portion of the first spray deposition is evaporated, and then dispose Octadecylaminodimethyltrihydroxysilylpropyl Ammonium Chloride 6 over the earlier-disposed Titanium-Oxide Moieties.
The test coupons of this Example II were prepared and using the Procedure recited immediately hereinbelow. In various embodiments, the treated coupons were stored for at least four (4) weeks prior to inoculation with various organisms.
This Example III simultaneously disposes a mixture of the organosilane and the Titanium-Oxide Moieties onto the surface of a plurality of test coupons. More specifically in this Example III, the simultaneously dispose the Titanium-Oxide Moieties and Octadecylaminodimethyltrihydroxysilylpropyl Ammonium Chloride 6 onto a surface of each test coupon.
The test coupons of this Example III were prepared and using the Procedure recited immediately hereinbelow. In various embodiments, the treated coupons were stored for at least four (4) weeks prior to inoculation with various organisms.
The test coupons of this Example IV were prepared and using the Procedure recited immediately hereinbelow. […]

| Compound | efficacy of treated coupons (self-decontaminating surface) |
| --- | --- |
| NCCC[Si](O)(O)O [3-aminopropyltrihydroxysilane] | generates a self-decontaminating surface |
| O[Si](O)(O)CCCCl [3-chloropropyltrihydroxysilane] | generates a self-decontaminating surface |

Source: patent publication US11369114B2, “Antimicrobial coatings comprising organosilane homopolymers” (ALLIED BIOSCIENCE, INC., priority 2014, dated 2022)
